In EP0811615A1, “1-Aryl-5-(substituted alkyl (thio) amido) pyrazoles and their use as pesticides” (RHONE-POULENC AGROCHIMIE, priority 1996, dated 1997):
Like-named read-outs stand apart in the source and are kept apart here.

What was measured:
Format in all cases: in vivo
southern armyworm = test: Southern armyworm foliar spray test on bean plants; conditions: Spodoptera eridania, 120 h, read-out: pest mortality SAW
Experimental: (§1) For mite, aphid, southern armyworm, Mexican bean beetle, and tobacco budworm tests, a solution or suspension was prepared by adding 10 mg of the test compound to a solution of 160 mg of dimethylformamide, 838 mg of acetone, 2 mg of a 3:1 ratio of Triton X-172 : Triton X-152 (respectively, mainly anionic and nonionic low foam emulsifiers which are each anhydrous blends of alkylaryl polyether alcohols with organic sulfonates), and […] of water. The result was a concentration of 100 ppm of the test compound.
(§2) Southern armyworm: Potted bean plants, were placed on a revolving turntable and sprayed with 100 ml of the 100 ppm test compound formulation by use of a DeVilbiss spray gun set at 40 psig air pressure. As an untreated control, 100 ml of a water-acetone-DMF-emulsifier solution, containing no test compound, were also sprayed on plants. A treated control with a commercial technical compound, either cypermethrin or sulprofos, formulated in the same manner, was tested as a standard. When dry, the leaves were placed in plastic cups lined with moistened filter paper. Five randomly selected second instar southern armyworm larvae were introduced into each cup which was closed and held for five days. Larvae which were unable to move the length of the body, even upon stimulation by prodding, were considered dead.

housefly = test: House fly bait test; conditions: Musca domestica, read-out: pest mortality HF
Excerpt: For housefly tests, the formulation was initially prepared in a similar manner to the above, but in 16.3 g of water with corresponding adjustment of other components, providing a 200 ppm concentration. Final dilution with an equal volume of a 20% by weight aqueous solution of sucrose provided a 100 ppm concentration of the test compound. When necessary, sonication was provided to insure complete dispersion.
House fly: Four to six day old adult house flies were reared according to the specifications of the Chemical Specialties Manufacturing Association (Blue Book, McNair-Dorland Co., N.Y. 1954; pages 243-244, 261) under controlled conditions. The flies were immobilized by anesthetizing with carbon dioxide and twenty five immobilized individuals, males and females, were transferred to a cage consisting of a standard food strainer and a wrapping-paper-covered surface. Ten ml of the 100 ppm test compound formulation were added to a soufflé cup containing an absorbent cotton pad. As an untreated control, 10 ml of a water-acetone-DMF-emulsifier-sucrose solution, containing no test compound, were applied in a similar manner. A treated control with a commercial technical compound, malathion, formulated in the same manner, was tested as a standard. The bait cup was introduced inside the food strainer prior to admitting the anesthetized flies.

tobacco budworm = test: Tobacco budworm foliar spray test on cotton plants; conditions: Heliothis virescens, 120 h, read-out: pest mortality TBW
Experimental: as §1
Tobacco budworm: Potted cotton plants were placed on a revolving turntable and sprayed with 100 ml of the 100 ppm test compound formulation by use of a DeVilbiss spray gun set at 40 psig air pressure. As an untreated control, 100 ml of a water-acetone-DMF-emulsifier solution, containing no test compound, were also sprayed on plants. A treated control with a commercial technical compound, either cypermethrin or sulprofos, formulated in the same manner, was tested as a standard. When dry, the leaves were placed in plastic dishes containing a piece of filter paper and a moistened dental wick. One randomly selected second instar tobacco budworm larva was then introduced into each cup which was closed and held for five days. Larvae unable to move the length of their body, even upon stimulation by prodding, were considered dead.

Mexican bean beetle = Mexican bean beetle foliar spray test on bean plants; conditions: Epilachna varivestis, 120 h, read-out: pest mortality MBB
Experimental: as §1
as §2, with “Mexican bean beetle:” for “Southern armyworm:”, “plants” for “plants,”, “formulation, sufficient to wet the plants to runoff,” for “formulation”, “Mexican bean beetle” for “southern armyworm”

[1] = foliar application at 100 ppm, second instar larvae, held five days
[2] = bait application at 100 ppm, adult flies, after 24 hours

SMILES	mortality at 100 ppm (southern armyworm; [1]) [%]	mortality at 100 ppm (housefly; [2]) [%]	mortality at 100 ppm (tobacco budworm; [1]) [%]	further results
COC(C)C(=O)Nc1c(SC(F)(Cl)Cl)c(C#N)nn1-c1c(Cl)cc(C(F)(F)F)cc1Cl (stereo not shown) [Compound 26]	70 to 100	70 to 100	70 to 100	–
CCCCOCC(=O)Nc1c(SC(F)(F)F)c(C#N)nn1-c1c(Cl)cc(C(F)(F)F)cc1Cl [Compound 6]	70 to 100	70 to 100	70 to 100	–
COCCOCC(=O)Nc1c(SC(F)(F)F)c(C#N)nn1-c1c(Cl)cc(C(F)(F)F)cc1Cl [Compound 3]	70 to 100	70 to 100	70 to 100	mortality at 100 ppm (Mexican bean beetle; [1]): 70 to 100%
CC(C)COCC(=O)Nc1c(SC(F)(F)F)c(C#N)nn1-c1c(Cl)cc(C(F)(F)F)cc1Cl [Compound 35]	70 to 100	70 to 100	–	mortality at 100 ppm (Mexican bean beetle; [1]): 70 to 100%
CC(C)COC(C)C(=O)Nc1c(SC(F)(F)F)c(C#N)nn1-c1c(Cl)cc(C(F)(F)F)cc1Cl (stereo not shown) [Compound 43]	70 to 100	70 to 100	70 to 100	–
COC(C(=O)Nc1c(SC(F)(Cl)Cl)c(C#N)nn1-c1c(Cl)cc(C(F)(F)F)cc1Cl)C(C)C (stereo not shown) [Compound 27]	70 to 100	–	70 to 100	–
CC(C)OCC(=O)Nc1c(SC(F)(F)F)c(C#N)nn1-c1c(Cl)cc(C(F)(F)F)cc1Cl [Compound 20]	70 to 100	70 to 100	70 to 100	mortality at 100 ppm (Mexican bean beetle; [1]): 70 to 100%
COCCOCC(=O)Nc1c(SC(F)(Cl)Cl)c(C#N)nn1-c1c(Cl)cc(C(F)(F)F)cc1Cl [Compound 16]	70 to 100	70 to 100	70 to 100	–
CC(C)COC(C)C(=O)Nc1c([S+]([O-])C(F)(F)F)c(C#N)nn1-c1c(Cl)cc(C(F)(F)F)cc1Cl (stereo not shown) [Compound 44]	70 to 100	70 to 100	–	mortality at 100 ppm (Mexican bean beetle; [1]): 70 to 100%
COCCOCCOCC(=O)Nc1c(SC(F)(F)F)c(C#N)nn1-c1c(Cl)cc(C(F)(F)F)cc1Cl [Compound 4]	70 to 100	70 to 100	70 to 100	–
COC(C)C(=O)Nc1c(SC(F)(F)F)c(C#N)nn1-c1c(Cl)cc(C(F)(F)F)cc1Cl (stereo not shown) [Compound 21]	70 to 100	70 to 100	70 to 100	–
COC(C)(C)C(=O)Nc1c(SC(F)(F)F)c(C#N)nn1-c1c(Cl)cc(C(F)(F)F)cc1Cl [Compound 30]	70 to 100	–	70 to 100	–
CCCC(OCC)C(=O)Nc1c(SC(F)(F)F)c(C#N)nn1-c1c(Cl)cc(C(F)(F)F)cc1Cl (stereo not shown) [Compound 41]	70 to 100	70 to 100	–	–
CCC(OC)C(=O)Nc1c(SC(F)(F)F)c(C#N)nn1-c1c(Cl)cc(C(F)(F)F)cc1Cl (stereo not shown) [Compound 38]	70 to 100	70 to 100	70 to 100	–
CCCCCCCCCCCCOCC(=O)Nc1c(SC(F)(F)F)c(C#N)nn1-c1c(Cl)cc(C(F)(F)F)cc1Cl [Compound 36]	–	70 to 100	–	–
C#CCN(C(=O)COC)c1c(SC(F)(F)F)c(C#N)nn1-c1c(Cl)cc(OC(F)(F)F)cc1Cl [Compound 48]	70 to 100	70 to 100	70 to 100	–
CCOC(CC)C(=O)Nc1c(SC(F)(F)F)c(C#N)nn1-c1c(Cl)cc(C(F)(F)F)cc1Cl (stereo not shown) [Compound 40]	70 to 100	70 to 100	–	–
COC(C(=O)Nc1c(SC(F)(F)F)c(C#N)nn1-c1c(Cl)cc(C(F)(F)F)cc1Cl)C(C)C (stereo not shown) [Compound 23]	70 to 100	–	70 to 100	–
COCC(=O)Nc1c([N+](=O)[O-])c(Br)nn1-c1c(Cl)cc(C(F)(F)F)cc1Cl [Compound 49]	70 to 100	–	70 to 100	–
CCC(OC)C(=O)Nc1c(SC(F)(Cl)Cl)c(C#N)nn1-c1c(Cl)cc(C(F)(F)F)cc1Cl (stereo not shown) [Compound 37]	70 to 100	70 to 100	70 to 100	–
CCOC(C)C(=O)Nc1c(SC(F)(Cl)Cl)c(C#N)nn1-c1c(Cl)cc(C(F)(F)F)cc1Cl (stereo not shown) [Compound 45]	70 to 100	70 to 100	70 to 100	mortality at 100 ppm (Mexican bean beetle; [1]): 70 to 100%
COC(C(=O)Nc1c([S+]([O-])C(F)(Cl)Cl)c(C#N)nn1-c1c(Cl)cc(C(F)(F)F)cc1Cl)C(C)C (stereo not shown) [Compound 29]	70 to 100	–	–	mortality at 100 ppm (Mexican bean beetle; [1]): 70 to 100%
COCC(=O)Nc1c([S+]([O-])C(F)F)c(C#N)nn1-c1c(Cl)cc(C(F)(F)F)cc1Cl (stereo not shown) [Compound 19]	70 to 100	70 to 100	–	–
CCOCC(=O)Nc1c(SC(F)(Cl)Cl)c(C#N)nn1-c1c(Cl)cc(C(F)(F)F)cc1Cl [Compound 15]	70 to 100	70 to 100	70 to 100	–
COC(C)(C)C(=O)Nc1c(SC(F)(Cl)Cl)c(C#N)nn1-c1c(Cl)cc(C(F)(F)F)cc1Cl [Compound 31]	70 to 100	–	70 to 100	–
CCCCCCOCC(=O)Nc1c(SC(F)(F)F)c(C#N)nn1-c1c(Cl)cc(C(F)(F)F)cc1Cl [Compound 33]	–	–	70 to 100	–
COCC(=O)Nc1c(SC(F)(Cl)Cl)c(C#N)nn1-c1c(Cl)cc(C(F)(F)F)cc1Cl [Compound 14]	70 to 100	70 to 100	70 to 100	–
COCC(=O)Nc1c(SC(F)(F)F)c(C#N)nn1-c1c(Cl)cc(C(F)(F)F)cc1Cl [Compound 1, 1-(2,6-dichloro-4-trifluoromethylphenyl)-3-cyano-4-trifluoromethylsulfenyl-5-(methoxyacetamido)pyrazole]	–	–	–	mortality at 100 ppm (southern armyworm; foliar): 70 to 100%; mortality at 100 ppm (housefly; 24 h): 70 to 100%; mortality at 100 ppm (tobacco budworm; foliar): 70 to 100%; mortality at 100 ppm (Mexican bean beetle; foliar): 70 to 100%
COC(=O)CCC(=O)Nc1c(SC(F)(F)F)c(C#N)nn1-c1c(Cl)cc(C(F)(F)F)cc1Cl [Compound 5]	70 to 100	70 to 100	70 to 100	–
COCCOCCOCC(=O)Nc1c([S+]([O-])C(F)(F)F)c(C#N)nn1-c1c(Cl)cc(C(F)(F)F)cc1Cl (stereo not shown) [Compound 10]	70 to 100	–	–	–
